How the values were obtained:
Assay in all cases: Degradation of BET proteins in MCF7 cells, Western blot with densitometry
Assay type in all cases: cell-based
BRD4 = BRD4 (Homo sapiens, UniProt O60885); parameters: endogenous in cells; host or cells: MCF7; details: 24 hour time course experiment; shown only in FIG. 1c
Method: (§1) MCF7 cells were plated in 24-well plates at 1.5×10^5 cells/well in DMEM growth medium containing 10% FBS and 1% Penicillin Streptomycin, and incubated overnight at 37° C. The following day, test compound was administered to the cells using 1000× compound stock solution prepared in DMSO at various concentrations. […] Cells were then washed with PBS and protein was collected in Laemmli sample buffer (1×; VWR International). Protein was isolated from cell lysate (approximately 25 μg) by SDS-PAGE and transferred to nitrocellulose membranes. Non-specific binding was blocked by incubating with blocking buffer (5% milk in Tris-buffered saline with 0.1% Tween 20 (“TBS-T”)) at room temperature for 60 minutes. The membrane was then incubated with primary antibodies (rabbit anti-BRD2 (1:1000, Cell Signaling), mouse anti-GAPDH (1:5,000, Santa Cruz), mouse anti-BRD3 (1:500, Abcam) and rabbit anti-BRD4 (1:500, Abcam)) overnight at 4° C., followed by washing (3 times) with TBS-T, and incubation with horseradish peroxidase-conjugated […] IgG (1:5,000, Jackson Immunoresearch) or goat anti-mouse IgG (1:5,000, Jackson Immunoresearch) for 60 minutes. After washing with TBS-T, blots were developed using an enhanced chemiluminescence kit (ThermoFisher Scientific) and the bands were imaged and quantified by densitometry (Bio-Rad).

BRD3 = molecular target: T1, BRD3 (Homo sapiens, UniProt Q15059); details: for degradative activity towards BRD3 over a 24 hour time course: 24 hour time course experiment, shown only in FIG. 1c; for degradative activity towards BRD3: MCF7 cell line, 6 hours after administration, shown only in FIG. 1a, 1b, 2
T1 construct: endogenous in cells; host or cells: MCF7
T1 sequence (Q15059 whole entry): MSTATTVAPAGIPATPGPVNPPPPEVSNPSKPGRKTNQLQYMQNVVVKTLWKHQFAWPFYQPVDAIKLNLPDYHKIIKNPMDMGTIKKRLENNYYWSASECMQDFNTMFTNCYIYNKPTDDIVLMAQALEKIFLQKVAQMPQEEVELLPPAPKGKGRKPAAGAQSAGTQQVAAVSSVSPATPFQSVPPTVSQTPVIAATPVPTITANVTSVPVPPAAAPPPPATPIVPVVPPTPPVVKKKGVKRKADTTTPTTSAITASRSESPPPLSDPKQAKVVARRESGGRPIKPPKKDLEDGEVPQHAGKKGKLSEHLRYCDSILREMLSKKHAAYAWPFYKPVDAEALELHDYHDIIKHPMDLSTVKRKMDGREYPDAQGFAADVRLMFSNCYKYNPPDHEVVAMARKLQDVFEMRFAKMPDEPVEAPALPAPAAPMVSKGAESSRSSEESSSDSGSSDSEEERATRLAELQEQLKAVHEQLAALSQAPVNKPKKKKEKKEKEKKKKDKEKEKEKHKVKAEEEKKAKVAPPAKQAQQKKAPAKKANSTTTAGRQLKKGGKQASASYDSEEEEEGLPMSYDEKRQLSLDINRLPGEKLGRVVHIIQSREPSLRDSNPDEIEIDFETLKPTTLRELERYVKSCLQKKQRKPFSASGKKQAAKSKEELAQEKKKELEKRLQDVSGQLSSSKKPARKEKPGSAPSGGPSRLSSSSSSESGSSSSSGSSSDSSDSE
Method: as §1

BRD2 = molecular target: T2, BRD2 (Homo sapiens, UniProt P25440); details: for degradative activity towards BRD2 over a 24 hour time course: 24 hour time course experiment, shown only in FIG. 1c; for degradative activity towards BRD2: MCF7 cell line, 6 hours after administration, shown only in FIG. 1a, 1b, 2
T2 construct: MCF7 cells were plated in 24-well plates; endogenous in cells; host or cells: MCF7
T2 sequence (P25440 whole entry): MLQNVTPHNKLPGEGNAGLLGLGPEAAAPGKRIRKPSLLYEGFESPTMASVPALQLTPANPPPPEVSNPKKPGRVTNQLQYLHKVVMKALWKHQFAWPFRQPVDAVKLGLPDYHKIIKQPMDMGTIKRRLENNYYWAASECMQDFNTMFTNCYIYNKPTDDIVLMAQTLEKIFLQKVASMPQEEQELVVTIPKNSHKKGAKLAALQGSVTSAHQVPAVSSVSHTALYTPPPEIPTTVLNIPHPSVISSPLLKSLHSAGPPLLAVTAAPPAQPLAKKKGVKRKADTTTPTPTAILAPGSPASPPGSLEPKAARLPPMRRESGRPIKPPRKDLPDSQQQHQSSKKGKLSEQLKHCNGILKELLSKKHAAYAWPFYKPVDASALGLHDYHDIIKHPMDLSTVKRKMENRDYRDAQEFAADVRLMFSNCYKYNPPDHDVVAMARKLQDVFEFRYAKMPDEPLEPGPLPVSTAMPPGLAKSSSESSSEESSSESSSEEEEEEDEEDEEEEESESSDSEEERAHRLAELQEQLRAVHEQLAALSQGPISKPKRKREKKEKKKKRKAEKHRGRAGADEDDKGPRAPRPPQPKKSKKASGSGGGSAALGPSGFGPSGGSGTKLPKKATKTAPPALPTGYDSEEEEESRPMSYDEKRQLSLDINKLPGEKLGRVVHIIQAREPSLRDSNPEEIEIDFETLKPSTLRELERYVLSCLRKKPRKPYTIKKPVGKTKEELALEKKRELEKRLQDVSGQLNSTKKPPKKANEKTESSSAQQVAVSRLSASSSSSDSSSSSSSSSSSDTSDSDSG
Method: as §1

Compound	degradative activity towards BRD4 over a 24 hour time course (BRD4)	degradative activity towards BRD3 over a 24 hour time course (BRD3)	degradative activity towards BRD3 (BRD3)	degradative activity towards BRD2 over a 24 hour time course (BRD2)	degradative activity towards BRD2 (BRD2)
Cc1sc2c(c1C)C(c1ccc(Cl)cc1)=N[C@@H](CC(=O)NCCCCCCCCCCC(=O)Nc1ccc(CC(=O)NC3CCC(=O)NC3=O)cc1)c1nnc(C)n1-2 (stereo partly drawn) [Compound 253034, 11-(2-((S)-4-(4-chlorophenyl)-2,3,9-trimethyl-6H-thieno[3,2-f][1,2,4]triazolo[4,3-a][1,4]diazepin-6-yl)acetamido)-N-(4-(2-((2,6-dioxopiperidin-3-yl)amino)-2-oxoethyl)phenyl)undecanamide]	degradative activity	degradative activity	degradative activity	degradative activity	degradative activity
Cc1sc2c(c1C)C(c1ccc(Cl)cc1)=N[C@@H](CC(=O)NCCCCCCCCCCC(=O)Nc1cccc(CC(=O)NC3CCC(=O)NC3=O)c1)c1nnc(C)n1-2 (stereo partly drawn) [Compound 253035, 11-(2-((S)-4-(4-chlorophenyl)-2,3,9-trimethyl-6H-thieno[3,2-f][1,2,4]triazolo[4,3-a][1,4]diazepin-6-yl)acetamido)-N-(3-(2-((2,6-dioxopiperidin-3-yl)amino)-2-oxoethyl)phenyl)undecanamide]	degradative activity	degradative activity	degradative activity	degradative activity	degradative activity
